From patent publication US20250114357A1, “BIFUNCTIONAL PROTAC AND MOLECULAR GLUE COMPOUNDS AND METHODS OF USE THEREOF” (Biolexis Therapeutics, Inc., priority 2023, published 2025) come the findings set out here.

The structures appear in SMILES notation.

The assay deals with T1, CDK9/CycT1 (Homo sapiens, UniProt P50750).
T1 construct: purchased SignalChem
Kind of assay: ADP-Glo Kinase Assay. Conditions: Table 1; assay not given. The class given is biochemical. As for the experimental part:
ADP-Glo assay kit is purchased from Promega and the CDK9/CycT1 protein and PDKtide substrate are purchased from SignalChem. Compounds of Structure (I) are dosed in 10-dose IC50 mode in duplicate with 3-fold serial dilution starting at 100 μM. The reaction is started by pre-incubating 4 μL of protein (20 nM), 2 μL of substrate (100 μM), and 2 μL of serial diluted drug in 1× assay buffer (50 mM HEPES, 3 mM MgCl2, 3 mM MnCl2, and 1 mM DTT) for 30 minutes. After pre-incubating, 4 μL of ATP (1 μM) is added to each well and incubated for an additional 90 minutes. The ADP-Glo Reagent (10 μL) and Kinase Detection Reagent (20 μL) are added to each well and incubated as recommended by Promega. The reaction is quantified by measuring luminescence and the IC50 is calculated using GraphPad Prism software.
For orientation: ADP-Glo turns the ADP formed in a reaction into a luminescent signal.

T1 sequence (P50750 whole entry): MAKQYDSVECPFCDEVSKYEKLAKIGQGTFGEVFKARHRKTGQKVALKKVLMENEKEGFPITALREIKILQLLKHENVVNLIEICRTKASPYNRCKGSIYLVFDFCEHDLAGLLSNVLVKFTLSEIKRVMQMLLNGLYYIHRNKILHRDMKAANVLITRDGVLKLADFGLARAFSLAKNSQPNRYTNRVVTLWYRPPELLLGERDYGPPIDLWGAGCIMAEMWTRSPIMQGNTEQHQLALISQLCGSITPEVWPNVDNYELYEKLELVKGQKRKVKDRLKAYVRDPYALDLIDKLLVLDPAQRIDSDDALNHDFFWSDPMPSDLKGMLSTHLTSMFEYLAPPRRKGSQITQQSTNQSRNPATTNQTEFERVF
T1 sequence (O60563 whole entry partner): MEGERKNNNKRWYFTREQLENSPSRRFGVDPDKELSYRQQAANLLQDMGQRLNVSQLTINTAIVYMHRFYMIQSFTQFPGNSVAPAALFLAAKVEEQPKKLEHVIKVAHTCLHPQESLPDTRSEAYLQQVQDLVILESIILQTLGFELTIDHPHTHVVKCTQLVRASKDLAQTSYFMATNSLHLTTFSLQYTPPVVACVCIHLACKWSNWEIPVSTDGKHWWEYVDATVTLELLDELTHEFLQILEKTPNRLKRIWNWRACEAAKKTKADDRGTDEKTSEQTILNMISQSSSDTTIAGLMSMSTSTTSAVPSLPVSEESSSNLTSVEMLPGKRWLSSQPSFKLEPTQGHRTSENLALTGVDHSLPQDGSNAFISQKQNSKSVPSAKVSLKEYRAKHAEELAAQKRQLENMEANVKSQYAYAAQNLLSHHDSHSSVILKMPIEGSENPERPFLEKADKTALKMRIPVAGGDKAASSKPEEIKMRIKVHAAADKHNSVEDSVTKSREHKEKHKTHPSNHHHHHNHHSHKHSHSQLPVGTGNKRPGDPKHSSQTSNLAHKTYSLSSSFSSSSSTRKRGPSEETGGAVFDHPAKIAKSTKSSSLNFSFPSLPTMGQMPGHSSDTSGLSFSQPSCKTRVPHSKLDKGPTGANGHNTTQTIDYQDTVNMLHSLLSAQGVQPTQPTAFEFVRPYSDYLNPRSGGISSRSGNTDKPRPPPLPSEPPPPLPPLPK

`CC(C)c1c2cc(-c3ccnc(N[C@H]4CC[C@H](NCCCCCc5cccc6c5CN(C5CCC(=O)NC5=O)C6=O)C4)n3)ccc2nn1C` (stereo partly drawn) [Compound I-1, 3-(4-(5-(((1S,3S)-3-((4-(3-isopropyl-2-methyl-2H-indazol-5-yl)pyrimidin-2-yl)amino)cyclopentyl)amino)pentyl)-1-oxoisoindolin-2-yl)piperidine-2,6-dione] returned an IC50 of 5 to 1000 nM. `CC(C)c1c2cc(-c3ccnc(N[C@H]4CC[C@H](NCCCCCc5cccc6c5C(=O)N(C5CCC(=O)NC5=O)C6=O)C4)n3)ccc2nn1C` (stereo partly drawn) [Compound I-2, 2-(2,6-dioxopiperidin-3-yl)-4-(5-(((1S,3S)-3-((4-(3-isopropyl-2-methyl-2H-indazol-5-yl)pyrimidin-2-yl)amino)cyclopentyl)amino)pentyl)isoindoline-1,3-dione] registered an IC50 of 5 to 1000 nM.

Consider `CC(C)c1c2cc(-c3ccnc(N[C@H]4CC[C@H](NC(=O)N5CCN(CCCCCc6cccc7c6C(=O)N(C6CCC(=O)NC6=O)C7=O)CC5)C4)n3)ccc2nn1C` (stereo partly drawn) [Compound I-3, 4-(5-(2-(2,6-dioxopiperidin-3-yl)-1,3-dioxoisoindolin-4-yl)pentyl)-N-((1S,3S)-3-((4-(3-isopropyl-2-methyl-2H-indazol-5-yl)pyrimidin-2-yl)amino)cyclopentyl)piperazine-1-carboxamide], for which the IC50 was no more than 5 nM. In turn, `CC(C)c1c2cc(-c3ccnc(N[C@H]4CC[C@H](NC(=O)N5CCN(CCCCCc6cccc7c6CN(C6CCC(=O)NC6=O)C7=O)CC5)C4)n3)ccc2nn1C` (stereo partly drawn) [Compound I-4, 4-(5-(2-(2,6-dioxopiperidin-3-yl)-1-oxoisoindolin-4-yl)pentyl)-N-((1S,3S)-3-((4-(3-isopropyl-2-methyl-2H-indazol-5-yl)pyrimidin-2-yl)amino)cyclopentyl)piperazine-1-carboxamide] yielded an IC50 of no more than 5 nM. As for `CC(C)c1c2cc(-c3ccnc(N[C@H]4CC[C@H](NC(=O)N5CCN(CCCCCc6ccc7c(c6)C(=O)N(C6CCC(=O)NC6=O)C7=O)CC5)C4)n3)cc(F)c2nn1C` (stereo partly drawn) [Compound I-5, 4-(5-(2-(2,6-dioxopiperidin-3-yl)-1,3-dioxoisoindolin-5-yl)pentyl)-N-((1S,3S)-3-((4-(7-fluoro-3-isopropyl-2-methyl-2H-indazol-5-yl)pyrimidin-2-yl)amino)cyclopentyl)piperazine-1-carboxamide], the figure is no more than 5 nM; as for `CC(C)c1c2cc(-c3ccnc(N[C@H]4CC[C@H](NC(=O)N5CCN(CCCCCc6ccc7c(c6)CN(C6CCC(=O)NC6=O)C7=O)CC5)C4)n3)cc(F)c2nn1C` (stereo partly drawn) [Compound I-6, 4-(5-(2-(2,6-dioxopiperidin-3-yl)-1-oxoisoindolin-5-yl)pentyl)-N-((1S,3S)-3-((4-(7-fluoro-3-isopropyl-2-methyl-2H-indazol-5-yl)pyrimidin-2-yl)amino)cyclopentyl)piperazine-1-carboxamide], no more than 5 nM. `CC(C)c1c2cc(-c3ccnc(N[C@H]4CC[C@H](NCc5cccc6c5C(=O)N(C5CCC(=O)NC5=O)C6=O)C4)n3)ccc2nn1C` (stereo partly drawn) [Compound I-7, 2-(2,6-dioxopiperidin-3-yl)-4-((((1S,3S)-3-((4-(3-isopropyl-2-methyl-2H-indazol-5-yl)pyrimidin-2-yl)amino)cyclopentyl)amino)methyl)isoindoline-1,3-dione] displayed an IC50 of 5 to 1000 nM.

For `CC(C)c1c2cc(-c3ccnc(N[C@H]4CC[C@H](NCc5cccc6c5CN(C5CCC(=O)NC5=O)C6=O)C4)n3)ccc2nn1C` (stereo partly drawn) [Compound I-8, 3-(4-((((1S,3S)-3-((4-(3-isopropyl-2-methyl-2H-indazol-5-yl)pyrimidin-2-yl)amino)cyclopentyl)amino)methyl)-1-oxoisoindolin-2-yl)piperidine-2,6-dione], the half-inhibitory concentration (IC50) was no more than 5 nM.

`CC(C)c1c2cc(-c3ccnc(N[C@H]4CC[C@H](NCc5cccc6c5C(=O)N(C5CCC(=O)NC5=O)C6=O)C4)n3)cc(F)c2nn1C` (stereo partly drawn) [Compound I-9, 2-(2,6-dioxopiperidin-3-yl)-4-((((1S,3S)-3-((4-(7-fluoro-3-isopropyl-2-methyl-2H-indazol-5-yl)pyrimidin-2-yl)amino)cyclopentyl)amino)methyl)isoindoline-1,3-dione]: the IC50 was in the range of 5 to 1000 nM. Take `CC(C)c1c2cc(-c3ccnc(N[C@H]4CC[C@H](NCc5cccc6c5CN(C5CCC(=O)NC5=O)C6=O)C4)n3)cc(F)c2nn1C` (stereo partly drawn) [Compound I-10, 3-(4-((((1S,3S)-3-((4-(7-fluoro-3-isopropyl-2-methyl-2H-indazol-5-yl)pyrimidin-2-yl)amino)cyclopentyl)amino)methyl)-1-oxoisoindolin-2-yl)piperidine-2,6-dione]: the IC50 is no more than 5 nM.

`CC(C)c1c2cc(-c3ccnc(N[C@H]4CC[C@H](NCc5ccc(-c6ccccn6)cc5)C4)n3)ccc2nn1C` [Compound I-11, (1S,3S)-N^1-(4-(3-isopropyl-2-methyl-2H-indazol-5-yl)pyrimidin-2-yl)-N^3-(4-(pyridin-2-yl)benzyl)cyclopentane-1,3-diamine] gave an IC50 of 5 to 1000 nM. Turning to `CC(C)c1c2cc(-c3ccnc(N[C@H]4CC[C@H](NCc5ccc(-c6ccccn6)cc5)C4)n3)cc(F)c2nn1C` [Compound I-12, (1S,3S)-N^1-(4-(7-fluoro-3-isopropyl-2-methyl-2H-indazol-5-yl)pyrimidin-2-yl)-N^3-(4-(pyridin-2-yl)benzyl)cyclopentane-1,3-diamine], the IC50 was in the range of 5 to 1000 nM.

Broadly, the IC50 is the concentration that gives 50% inhibition.
